Legend:
Type in all cases: in vivo, mouse
TGF-β signaling = experiment: TGF-β activity by phosphorylation of Smad2 or Erk1 in aortas of treated mice; details: aortic tissue of treated Fbn1C1039G/+ mice
Procedure: (§1) Latex was injected into the left ventricular apex under low pressure until it was visible in the femoral artery. Animals were then fixed in Formalin (10%) for 24 hours before transfer to 70% ethanol for dissection and storage. Aortas were then removed from the animals or dissected in situ for photography prior to paraffinization and sectioning (10 pM). Slides were produced for tissue staining or stained with standard stains including H&E staining, collagen deposition (Trichrome Stain (Masson) Kit, Sigma, USA), elastin (Verhoeff-Van Gieson, Thermo Scientific, MI, USA) or F-actin (ActinGreen™ 488 ReadyProbes, ThermoFisher Scientific, USA) for quantitative analysis. Elastin integrity score was rated by blinded observers and graded on an arbitrary scale of 5 (indicating high quality elastic fiber) to 1 (indicating severe elastin fragmentation). For nuclear staining aortas from human and mice were cryosectioned using OCT standard protocol as described previously (Fischer et al., 2008). Cohorts of 8-week-old wild-type or Fbn1cw3gGi+ mice were treated with oral administration in drinking water of either Losartan or GSK343 for 20 weeks (FIG. 5). […] Then 200 mL of drinking water was supplemented with 250 pL of GSK343 stock solution. […] Aortic dimensions were monitored monthly by echocardiograms as mentioned above.

[1] = system: aortic aneurysm in Fbn1C1039G/+ mice; experiment: experimental aortic aneurysm in Fbn1C1039G/+ mice: echocardiographic aortic dimensions; details: Fbn1C1039G/+ mice treated from two to six months of life, drinking water
Description: Dimensions from each animal represent averages of measurements made on still frames in systole of the maximal internal diameter of the aortic valve annulus, aortic sinuses, sinotubular junction, or ascending aorta by a cardiologist blinded to genotype. The aorta was imaged using a standard parasternal long axis view. Based on historic controls, the mean diameter of the wild type aortic root at 4 months of life is 1.73+/-0.2 mm while in our disease model (Fbn1ci°[…]/+) the mean diameter is 2.15+/-0.3 mm. […] Nair hair removal cream was used on all mice the day prior to echocardiograms. All echocardiograms were performed on awake, unsedated mice using the Visualsonics Vevo imaging system and a 30 MHz transducer. All CT images were acquired using an Inveon small animal micro CT (Siemens Medical Solutions Inc., Malven, Pa.). All mice received intravenous iodinated contrast (Isovue-370, Bracco Diagnostic Inc.) at 20 pL/min during the scan. […] Images were visualized and analyzed in OsiriX software. Cohorts of 8-week-old wild-type or Fbn1cw3gGi+ mice were treated with oral administration in drinking water of either Losartan or GSK343 for 20 weeks (FIG. 5). […] Then 200 mL of drinking water was supplemented with 250 pL of GSK343 stock solution. […] Aortic dimensions were monitored monthly by echocardiograms as mentioned above.

[2] = system: aortic wall of Fbn1C1039G/+ mice; experiment: histologic analysis of aortas of treated Fbn1C1039G/+ mice; details: aortas of Fbn1C1039G/+ mice treated from two to six months
Procedure: Latex was injected into the left ventricular apex under low pressure until it was visible in the femoral artery. Animals were then fixed in Formalin (10%) for 24 hours before transfer to 70% ethanol for dissection and storage. Aortas were then removed from the animals or dissected in situ for photography prior to paraffinization and sectioning (10 pM). Slides were produced for tissue staining or stained with standard stains including H&E staining, collagen deposition (Trichrome Stain (Masson) Kit, Sigma, USA), elastin (Verhoeff-Van Gieson, Thermo Scientific, MI, USA) or F-actin (ActinGreen™ 488 ReadyProbes, ThermoFisher Scientific, USA) for quantitative analysis. Elastin integrity score was rated by blinded observers and graded on an arbitrary scale of 5 (indicating high quality elastic fiber) to 1 (indicating severe elastin fragmentation). For nuclear staining aortas from human and mice were cryosectioned using OCT standard protocol as described previously (Fischer et al., 2008). Cohorts of 8-week-old wild-type or Fbn1cw3gGi+ mice were treated with oral administration in drinking water of either Losartan or GSK343 for 20 weeks (FIG. 5). […] Then 200 mL of drinking water was supplemented with 250 pL of GSK343 stock solution. Control group for either drug treatment was given with equal volumes of sterile water. Bottles containing either losartan or GSKS343 were replaced with fresh water supplied with drugs every 3 days. For experiments described in FIG. 5A-5C, 16-week-old wild-type or Fbnicw3gGi+ mice were treated for 8 weeks and as described above. Additionally, a group of mice were given a combination of both losartan and GSK343 at the same concentrations as of other single drug treatments. Aortic dimensions were monitored monthly by echocardiograms as mentioned above.

SM22a = experiment: immunostaining of SM22a protein in aortas of treated Fbn1C1039G/+ mice; details: compared to control Fbn1C1039G/+ mice
Procedure: as §1

H3K27me3 = H3K27me3 staining in aortas of treated Fbn1C1039G/+ mice; details: compared to control or losartan treated mice
Procedure: as §1

VSMC phenotypic markers = experiment: expression of VSMC phenotypic markers in aortas of treated Fbn1C1039G/+ mice; details: aortas of Fbn1C1039G/+ mice treated from two to six months
Procedure: Total RNA was prepared from tissue or primary cells using RNeasy kit (Qiagen) following the manufacturer's protocol. The cDNA was prepared by reverse transcription, and expression of SMC contractile genes were analyzed by qRT-PCR on SYBR green system (Applied Biosystem, Foster city, CA). 50 pL of plasma from wild-type or Fbn1cl° 39G1+ mice were used to prepare total RNA as mentioned above. Expression results were analyzed by the ddCT method and GAPDH (encoding glyceraldehyde-3-phosphate dehydrogenase) was used as a housekeeping gene. Fold change were calculated by taking the average over all the control samples as the baseline. […] The supernatant was removed and the vesicular fraction was resuspended with 750 pL of TRizol reagent followed by RNA extraction using the RNeasy kit (Qiagen) according to the manufacturer's protocol. Cohorts of 8-week-old wild-type or Fbn1cw3gGi+ mice were treated with oral administration in drinking water of either Losartan or GSK343 for 20 weeks (FIG. 5). […] Then 200 mL of drinking water was supplemented with 250 pL of GSK343 stock solution. Control group for either drug treatment was given with equal volumes of sterile water. Bottles containing either losartan or GSKS343 were replaced with fresh water supplied with drugs every 3 days. For experiments described in FIG. 5A-5C, 16-week-old wild-type or Fbnicw3gGi+ mice were treated for 8 weeks and as described above. Additionally, a group of mice were given a combination of both losartan and GSK343 at the same concentrations as of other single drug treatments. Aortic dimensions were monitored monthly by echocardiograms as mentioned above.

CCCCc1nc(Cl)c(CO)n1Cc1ccc(-c2ccccc2-c2nnn[n-]2)cc1.[K+] [Losartan]
TGF-β activity as assessed by phosphorylation of Smad2 or Erk1 protein (TGF-β signaling): reduced | aortic dimensions [1]: ability to improve aortic dimensions | aortic architecture and filamentous actin content [2]: improvement | elastin integrity [2]: improve elastin integrity overall | SM22a protein expression (immunostaining of aortas) (SM22a): recovery of SM22a protein expression | H3K27me3 staining / aortic medial H3K27me3 modifications (H3K27me3): did not | synthetic markers (Col1a1, Col3a1, Gja1, Mmp2) (VSMC phenotypic markers): better ability to decrease

Source: patent US11938129B2, “Methods and compositions for the treatment of vascular disease” (THE GENERAL HOSPITAL CORPORATION, priority 2018, dated 2024)
